Results: ChEMBL document CHEMBL1148484, “Design, synthesis, and biological evaluation of doxorubicin-formaldehyde conjugates targeted to breast cancer cells” (J Med Chem, 2004)

How the values were obtained:
MDA-MB-435 = assay: cells; settings: Homo sapiens
Description: Inhibition of MDA-MB-435 breast cancer cell proliferation

MDA-MB-231 = assay: cells; settings: Homo sapiens
Description: Inhibition of estrogen receptor negative MDA-MB-231 breast cancer cell proliferation

NCI/ADR-RES = assay: cells; settings: Homo sapiens
Description: Inhibition of MCF-7/Adr breast cancer cell proliferation

Estrogen receptor = Estrogen receptor (Homo sapiens, UniProt Q92731+P03372); settings: mcf-7
Description: Inhibition of [3H]E2 binding to estrogen receptor alpha in MCF-7 cell lysate

MCF7 = assay: cells; settings: Homo sapiens
Description: Inhibition of estrogen receptor positive MCF-7 breast cancer cell proliferation

SMILES | IC50 (MDA-MB-435) [nM] | IC50 (MDA-MB-231) [nM] | IC50 (NCI/ADR-RES) [nM] | IC50 (Estrogen receptor) [nM] | IC50 (MCF7) [nM]
COc1cccc2c1C(=O)c1c(O)c3c(c(O)c1C2=O)C[C@@](O)(C(=O)CO)C[C@@H]3O[C@H]1C[C@H](N)[C@H](O)[C@H](C)O1 [DOXORUBICIN] | 150 | 300 | 10000 | – | –
CC/C(=C(/c1ccc(O)cc1)c1ccc(OCN(C)C)cc1)c1ccccc1 | 20000 | 30000 | 40000 | 5 | 300
CCC(c1ccccc1)C(c1ccc(O)cc1)c1ccc(OCCN(C)CCOCCO/N=C/c2ccc(O)c(C(N)=O)c2)cc1 (centres undefined) | – | – | – | 150 | –
CC/C(=C(/c1ccc(O)cc1)c1ccc(OCCN(C)CCO/N=C/c2ccc(O)c(C(=O)NCNC3CC(O[C@H]4C[C@](O)(C(=O)CO)Cc5c(O)c6c(c(O)c54)C(=O)c4c(OC)cccc4C6=O)OC(C)C3O)c2)cc1)c1ccccc1 (some centres undefined) | 60 | 40 | 250 | 300 | 80
CC/C(=C(/c1ccc(O)cc1)c1ccc(OCCN(C)CCOCCOCCO/N=C/c2ccc(O)c(C(=O)NCNC3CC(O[C@H]4C[C@](O)(C(=O)CO)Cc5c(O)c6c(c(O)c54)C(=O)c4c(OC)cccc4C6=O)OC(C)C3O)c2)cc1)c1ccccc1 (some centres undefined) | 40 | 30 | 60 | 200 | 30
CCC(c1ccccc1)C(c1ccc(O)cc1)c1ccc(OCCN(C)CCOCCOCCO/N=C/c2ccc(O)c(C(N)=O)c2)cc1 (centres undefined) | – | – | – | 150 | –
CC/C(=C(\c1ccccc1)c1ccc(OCCN(C)C)cc1)c1ccccc1 [TAMOXIFEN] | 50 | 80 | 2000 | – | 70
CC/C(=C(/c1ccc(O)cc1)c1ccc(OCN(C)C)cc1)c1ccccc1.COc1cccc2c1C(=O)c1c(O)c3c(c(O)c1C2=O)C[C@@](O)(C(=O)CO)C[C@@H]3O[C@H]1C[C@H](N)[C@H](O)[C@H](C)O1 | 100 | 100 | 2000 | – | 70
CC/C(=C(/c1ccc(O)cc1)c1ccc(OCCN(C)CCOCCO/N=C/c2ccc(O)c(C(=O)NCNC3CC(O[C@H]4C[C@](O)(C(=O)CO)Cc5c(O)c6c(c(O)c54)C(=O)c4c(OC)cccc4C6=O)OC(C)C3O)c2)cc1)c1ccccc1 (some centres undefined) | 40 | 30 | 70 | 300 | 20
CCC(c1ccccc1)C(c1ccc(O)cc1)c1ccc(OCCN(C)CCO/N=C/c2ccc(O)c(C(N)=O)c2)cc1 (centres undefined) | – | – | – | 300 | –
